This note sets out measurements from PubChem BioAssay (NCI).

Where “and” joins values, the source holds several entries; their conditions need not be identical. Equal values may be shown once.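 Tested at 5 concentrations; 48 h exposure; 96-well plates; endpoints linearly interpolated, else capped at highest concentration. At the GI50, growth is halved. TGI is the concentration that stops growth completely.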 A value given as a limit tells only on which side of the number the result lay.

What all share (assay): NCI tumour cell line growth inhibition, 48 h
The test system of test [1] is OVCAR-5 ovarian.
Test [2] has as its system NCI-H226 lung.
Test [3] deals with RPMI-8226 leukemia.
In test [4] the test system is SK-MEL-28 melanoma.
The subject of test [5] is HOP-92 NSCLC.
Test [6] deals with LOX IMVI melanoma.
Test [7] concerns TK-10 renal.
Test [8] relates to SF-268 CNS.
The test system of test [9] is SK-MEL-2 melanoma.
The test system of test [10] is MALME-3M melanoma.

With `COC(=O)C12CC(NC(=O)c3csc([C@@H](C[C@H](C(C)C)N(C)C(=O)[C@@H](NC(=O)[C@H]4CCCCN4C)C(C)C)OC(C)=O)n3)(C1)C2`, the TGI in test [1], in test [3], in [4], in test [5], in test [6] and in test [7] was > 33.3 µM each time. Moreover, the TGI in test [8] and in [10] was > 33.3 µM throughout. The GI50 in test [2] is 0.0181 µM and 0.0227 µM; in [3], 0.00131 µM and 0.00333 µM; in test [4], > 33.3 µM; in test [5] it was > 33.3 µM; in test [6] it was 0.00217 µM and 0.00333 µM; in [7], 0.379 µM. The GI50 in [8] is 0.00488 µM and 0.00388 µM; in [9], 0.00197 µM; in test [10], 7.16 µM.

For the molecule `Fc1ccc(-c2ncn(C3CCNCC3)c2-c2ccnc(Oc3ccc(Oc4ccccc4)cc3)n2)cc1`, the GI50 in test [1] is 4.1 µM; in test [2] it was 3.6 µM; in [3], 4.99 µM; in test [4], 4.27 µM; in [5] it was 0.651 µM; in [6], 3.15 µM. Moreover, the GI50 is 4.35 µM in test [7], 3.94 µM in test [8], 5.03 µM in test [9] and 4.68 µM in test [10]. In addition, the TGI in test [1] was 7.67 µM; in [2], 7.53 µM; in test [3], 9.91 µM; in test [4], 7.82 µM; in test [5], 4.15 µM; in test [6] it was 7.09 µM. Besides, the TGI turned out to be 7.98 µM in [7], 7.71 µM in test [8], 9.06 µM in test [9] and 8.95 µM in [10].

For the molecule `CCN1CCN(c2nc(NNC(=O)c3cccc(OC)c3)nc(N3CCN(C(c4ccccc4)c4ccccc4)CC3)n2)CC1`, the GI50 was 2.83 µM in [1]; 1.69 µM in [2]; 1.84 µM in test [3]; 1.8 µM in [4]; 1.29 µM in test [5]; 1.62 µM in test [6]. The GI50 is 1.78 µM in [7], 1.95 µM in [8], 2.02 µM in test [9] and 1.52 µM in test [10]. Further, the TGI in test [1] turned out to be 9.97 µM; in [2], 3.76 µM; in test [3], 4.4 µM; in [4] it was 3.34 µM; in test [5], 3.33 µM; in test [6], 2.97 µM. In addition, the TGI in test [7] worked out at 3.55 µM; in test [8], 4.2 µM; in test [9], 4.05 µM; in test [10], 2.94 µM.

Regarding `O=c1cc(-c2ccccc2)[nH]c2c(F)ccc(F)c12`, the TGI in test [1], in [2], in test [3], in test [4], in test [5] and in [6] was > 100 µM each time. Moreover, the TGI was > 100 µM in test [7], > 100 µM in test [8], 77.1 µM in test [9] and 96.3 µM in test [10].

In the case of `C/C(=C\COc1ccc2ccc(=O)oc2c1)CCC(=O)C(C)(C)O`, the TGI in test [1] is > 100 µM; in test [2], 69.7 µM; in [3], 50 µM; in test [4], > 100 µM; in [5] it was 64.5 µM; in [6] it was 32.8 µM. In addition, the TGI in [7], in test [8], in test [9] and in test [10] was > 100 µM in each case.

In the case of `CCCCOc1nc2ccccc2cc1C1CNC(=O)c2ccccc2N1` (centres undefined), the GI50 is 5.4 µM in [1]; 4.82 µM in test [2]; 2.81 µM in test [3]; 4.82 µM in test [4]; 4.57 µM in [5]; 3.24 µM in test [6]. For the same molecule, the GI50 in test [7] was 5.92 µM; in [8] it was 4.24 µM; in [9], 4.06 µM; in test [10], 5.82 µM. In addition, the TGI in [1] was 31.4 µM; in test [2], 19.2 µM; in test [3], 16 µM; in test [4], 23.6 µM; in test [5] it was 26.6 µM; in [6] it was 15.4 µM. Besides, the TGI in test [7] is 22.1 µM; in test [8] it was > 48.5 µM; in test [9], 29.6 µM; in test [10], 38.4 µM.

As to `CC(C)N(C(=O)C12C3C4C5C3C1(C(=O)N(C(C)C)C(C)C)C5C42)C(C)C` (centres undefined), the TGI was > 100 µM in [1]; > 100 µM in test [2]; > 64.4 µM in test [3]; > 100 µM in [4]; > 100 µM in test [5]; > 69.5 µM in [6]. For the same molecule, the TGI in [7], in test [8], in [9] and in test [10] was > 100 µM throughout.

For the molecule `O=C1c2ccccc2-c2c1c1ccccc1c(=O)n2CCCNCCO`, the GI50 in test [1] is 1.05 µM; in test [2], 1.45 µM; in test [3], 0.241 µM; in [4] it was 1.24 µM; in [5], 0.357 µM; in test [6], 0.206 µM. Also, the GI50 is 1.33 µM in test [7], 0.796 µM in test [8], 2.84 µM in test [9] and 0.511 µM in test [10]. Further, the TGI in test [1] came out at 7.27 µM; in [2], 5.38 µM; in [3], 1.76 µM; in test [4], 2.95 µM; in test [5], 2.61 µM; in test [6], 2.79 µM. Moreover, the TGI came to 7.44 µM in test [7], 8.85 µM in test [8], 6.15 µM in test [9] and 1.93 µM in test [10].

Consider `CC(C)=CCCC1(C)C=Cc2c(ccc3c2[nH]c2cc(O)c(C)cc23)O1` (centres undefined), for which the TGI is > 25 µM in test [1]; 14.6 µM in [2]; 18.9 µM in test [3]; > 2.5 µM in test [4]; 10.2 µM in test [5]; 8.19 µM in [6]. Further, the TGI in test [7] was > 25 µM; in test [8], 10.2 µM; in test [9] it was > 25 µM; in test [10] it was 11 µM. Moreover, the GI50 in test [2] is 7.02 µM; in test [5] it was 4.22 µM; in test [6], 4.53 µM; in [7], 16.7 µM; in test [8], 5.06 µM; in test [9], 6.47 µM. The GI50 in [10] was 5.2 µM.

Take `O=C(N/N=C\c1cc(Br)cc(Br)c1O)N/N=C/c1cc(Br)cc(Br)c1O`: the GI50 in test [1] was 10.6 µM; in test [2], 2.23 µM; in test [3] it was 2.72 µM; in test [4] it was 2.79 µM; in [5], 1.85 µM; in [6] it was 2.57 µM. Besides, the GI50 in [7] was 10.6 µM; in test [8] it was 1.47 µM; in [9] it was 11.2 µM; in test [10] it was 11.5 µM. The TGI in [1] was 27.6 µM; in [2], 9.82 µM; in test [3] it was 10.6 µM; in test [4] it was 16.1 µM; in test [5], 16.4 µM; in test [6], 12.1 µM. The TGI in test [7] was 26.2 µM; in [8], 12 µM; in test [9] it was 24 µM; in test [10], 31.3 µM.

With `CCOC(=O)Nc1ccc2nc(Sc3ccc(Cl)cc3)sc2c1`, the GI50 in test [1] was 21.6 µM; in test [2], 7.9 µM; in test [3], 3.51 µM; in test [4], 13.5 µM; in [5], 7.98 µM; in [6], 4.45 µM. Also, the GI50 in [7] is 9.1 µM; in test [8], 8.66 µM; in test [9], 2.56 µM; in test [10], 5.7 µM. Moreover, the TGI in test [1] was > 100 µM; in test [2] it was 76.3 µM; in [3] it was 54.8 µM; in [4], > 100 µM; in [5], 65.4 µM; in test [6] it was 25.3 µM. Also, the TGI in [7] is 58.4 µM; in test [8], > 100 µM; in test [9], 26.4 µM; in test [10], 37.1 µM.

Take `c1ccc2c(Nc3ccc4c(c3)OCO4)c3ccoc3nc2c1`: the GI50 was 25.9 µM in test [1]; 25.5 µM in [2]; 3.26 µM in test [3]; 19.2 µM in [4]; 12.7 µM in test [5]; 17.9 µM in [6]. In addition, the GI50 in [7] was 19.4 µM; in [8] it was 15.6 µM; in test [9] it was 26.4 µM; in test [10] it was 15.9 µM. In addition, the TGI was 60.9 µM in [1]; > 100 µM in test [2]; 25.6 µM in test [3]; 58.6 µM in test [4]; 43.3 µM in test [5]; 41.7 µM in test [6]. In addition, the TGI in [7] was 42.9 µM; in [8], 51.6 µM; in test [9], > 100 µM; in [10], 34.3 µM.

As for `O=C(/C=C/c1ccc(OCCCOc2ccc(/C=C/C(=O)c3ccc(Cl)cc3)cc2)cc1)c1ccc(Cl)cc1`, the TGI in test [1], in [2], in test [3], in [4], in [5] and in test [6] was > 100 µM throughout. The TGI in test [7], in [8], in test [9] and in [10] was > 100 µM in each case.

Turning to `CCN(Cc1cccc(C)c1)c1ccc(CO)c(Cl)c1`, the GI50 in test [1] was 0.245 µM; in test [2] it was 0.121 µM; in [3], 6.2 µM; in test [4], 15.1 µM; in test [5], 2.16 µM; in test [6] it was 13.2 µM. Further, the GI50 was 0.113 µM in test [7], 16.2 µM in test [8], 5.77 µM in test [9] and 15.7 µM in test [10]. The TGI in test [1] was found to be 1.04 µM; in [2], 0.252 µM; in [3], 31.2 µM; in test [4] it was 39.5 µM; in test [5] it was 13.5 µM; in test [6] it was 26.6 µM. Further, the TGI in test [7] amounted to 0.36 µM; in [8], 31.1 µM; in test [9], 21.8 µM; in test [10], 33.4 µM.

In the case of `S=C1NC2=C(CCOc3c2ccc2ccccc32)C(c2ccc(Cl)cc2)N1` (centres undefined), the GI50 in test [1] was 73.9 µM; in test [2], 17 µM; in [3] it was 25 µM; in [4], 41.1 µM; in [5] it was 30.5 µM; in test [6], 40.2 µM. The GI50 in test [7] is 35.4 µM; in test [8], 39.2 µM; in [9], 80.9 µM; in test [10], 23.8 µM. Further, the TGI in test [1] is > 100 µM; in [2], 49.5 µM; in test [3] it was > 100 µM; in [4] it was > 100 µM; in test [5], > 100 µM; in test [6], > 100 µM. Also, the TGI is > 100 µM in test [7], > 100 µM in test [8], > 100 µM in test [9] and 73.8 µM in [10].

Consider `c1ccc(-c2nn(-c3ccccc3)[n+](-c3ccccc3-c3ccccc3)n2)cc1`, for which the GI50 is 4.19 µM in test [1]; 2.83 µM in test [2]; 0.251 µM in [3]; 2.3 µM in test [4]; 0.775 µM in test [5]; 1.02 µM in test [6]. The GI50 in test [7] was 4.35 µM; in [8] it was 1.71 µM; in test [9], 1.8 µM; in test [10], 0.248 µM. Also, the TGI in [1] is > 100 µM; in test [2], > 100 µM; in [3] it was 5.84 µM; in test [4], 27.2 µM; in test [5] it was 5.48 µM; in test [6], 18.8 µM. Also, the TGI in [7] was 21.5 µM; in [8] it was > 47.7 µM; in test [9], 7.69 µM; in test [10], 1.53 µM.
